Data as given in US11351218B2, “Composition for preventing or treating glioblastoma comprising Platycodon grandiflorum A. De Candolle, Scutellaria baicalensis, Phellodendron amurense Ruprecht or Rubus coreanus” (University-Industry Cooperation Group of Kyung Hee …, priority 2019, dated 2022).

Experiments:
Assay type in all cases: cell-based, human
U87MG and U373MG cells [1] = assay: Cholesterol measurement (total cholesterol assay kit) in GBM cells; conditions: PD 10 μM or U18666a 1 μM, 24 hours
Procedure: FIGS. 15A and 15B show the results that PD promotes accumulation of cholesterol in lysosomes. Cells were treated with DMSO, PD (10 μM), or U18666a (1 μM) for 24 hours. […] Total cholesterol levels are expressed in cholesterol (μg) per protein (mg) of cell lysate and are shown as means±SD from two independent experiments.
Cells treated as described above were processed using a total cholesterol assay kit (STA384, Cell Biolabs) according to the manufacterer's instructions. Cholesterol esters and free cholesterol were quantified by homogenizing 10^6 cells extracted from a 200 μL mixture of chloroform: isopropanol: NP-40 (7:11:0.1). After centrifugation of the extract at 15,000× g for 10 minutes, the organic phase was collected and evaporated at 50° C. The extract was resuspended in 200 μL of a 1× cholesterol assay diluent prior to analysis. The colorimetric signal was analyzed using an ELISA reader (Versa Max, Molecular Devices, Sunnyvale, Calif., USA) at 540 nm. Cellular cholesterol results were reported as μg of cholesterol per mg of cell protein.

U87MG and U373MG cells [2] = assay: Immunofluorescence of SQSTM1/p62 with GFP-LC3B in GBM cells; conditions: PD 10 μM or BafA1 (100 μM), 24 hours
Procedure: The cells expressing GFP-LC3B (green) were treated with DMSO, PD (10 μM), or BafA1 (100 μM) for 24 hours, followed by staining with an anti-SQSTM1 antibody (red) and DAPI (blue). The merged images (yellow) indicate co-localization between LC3 and p62. The panels on the right are higher-magnification images of the boxed regions.
Cultured cells seeded in plates with microscope coverslips were transfected with a pGFP-LC3B plasmid using Lipofectamine 3000 (Thermo Fisher Scientific) according to the manufacturer's instructions. After the transfection, the cells were fixed with 4% paraformaldehyde (PFA) in phosphate-buffered saline (PBS) at room temperature for 10 minutes. The images were examined under a laser confocal microscope (Zeiss, Oberkochen, Baden-Wurttemberg, Germany).
Cells treated with the materials were permeabilized with 0.01% Triton X-100 in PBS. After blocking the resulting cells in 2% bovine serum albumin (BSA) in PBS, they were incubated at 4° C. with a primary antibody against SQSTM1/p62 (Santa Cruz) overnight. The stained cells were incubated with an Alexa594-conjugated secondary antibody (Invitrogen, Calif., USA). The images were examined under a Zeiss laser confocal microscope.

SQSTM1 mRNA = assay: RT-PCR of SQSTM1 (p62) mRNA in GBM cells; conditions: PD 5 μM and 10 μM, 24 hours, both GBM cells
Procedure: FIGS. 3A to 3C show the results that PD inhibits autophagic flux in GBM cells. […] The expression of LC3B and SQSTM1 was confirmed by immunoblot analysis. […] GAPDH was used as a loading control.
Total RNA was isolated using the Easy-Blue RNA extraction kit (iNtRON Biotech, Sungnam, Korea) according to the manufacturer's directions. 1 μg of the total RNA was reverse transcribed using a cDNA synthesis kit (TaKaRa, Otsu, Shinga, Japan) according to the manufacturer's instructions. The obtained cDNA was then amplified by PCR in a reaction mixture consisting of 10× Taq buffer, 2.5 mM dNTP mixture, Taq DNA polymerase (Takara), and corresponding primer sets. The primer sequences were as follows. Human SQSTM1-forward: 5′-GAACTCCAGTCCCTACAGATGCC-3′ (SEQ ID NO: 1), SQSTM1-reverse: 5′-CGGGAGATGTGGGTACAAGG 2-3′ (SEQ ID NO: 2); Human LDLR-forward: 5′-CAG ATA TCA TCA ACG AAG C-3′ (SEQ ID NO: 3), LDLR-reverse: 5′-CCTCTCACACCAGTTCACTCC-3′ (SEQ ID NO: 4); Human GAPDH-forward: 5′-CGTCTTCACCACCATGGAGA-3′ (SEQ ID NO: 5), GAPDH—reverse: 5′-CGGCCATCACGCCACAGTTT-3′ (SEQ ID NO: 6). The PCR products were analyzed by 1.5% agarose gels.

LDLR-silenced GBM cells = assay: WST1 assay and immunoblot in LDLR-silenced (shLDLR) GBM cells
Source text: FIGS. 20A and 20B show the results that downregulation of LDLR restores inhibition of autophagy and cell viability. […] The expressions of LDLR, LC3B, SQSTM1, and pro/active CTSB were detected by immunoblot analysis. GAPDH was used as a loading control. […] Data shown represent the means of quintuplicate measurements which were repeated three times. The results are presented as a percentage of control (means±SD).
shRNA sequences against LDLR were cloned into a lentiviral vector. For the production of lentivirus, the vectors were co-transfected with psPAX2 and pMD2.G in 293T cells using Lipofectamine 3,000 (Invitrogen). Then, the cultured medium was harvested. The viral supernatant was applied to GBMs and cells were selected in puromycin for 3 additional days. The shRNA sequence was as follows. shLDLR sequence: 5′-CCACTTGTAGGAGATGCAT-3′ (SEQ ID NO: 7).
The present inventors hypothesized that the enhanced expression of LDLR and uptake of exogenous cholesterol by PD may promote accumulation of cholesterol in lysosomes and contribute to PD-mediated inhibition of autophagy and cell viability in GBM cells. To this end, the expression of LDLR gene was silenced in GBM cells using lentiviral shRNA transduction.

SMILES: C[C@@H]1O[C@@H](O[C@H]2[C@H](OC(=O)[C@]34CCC(C)(C)C[C@H]3C3=CC[C@@H]5[C@@]6(C)C[C@H](O)[C@H](O[C@@H]7O[C@H](CO)[C@@H](O)[C@H](O)[C@H]7O)C(CO)(CO)[C@@H]6CC[C@@]5(C)[C@]3(C)C[C@H]4O)OC[C@H](O)[C@@H]2O)[C@H](O)[C@H](O)[C@H]1O[C@@H]1OC[C@@H](O)[C@H](O[C@@H]2OC[C@](O)(CO)[C@H]2O)[C@H]1O [PD, platycodin D]
- free cholesterol levels (U87MG and U373MG cells [1]): significant increase
- p62 staining and colocalization with GFP-LC3B puncta (U87MG and U373MG cells [2]): increase
- p62 mRNA levels (SQSTM1 mRNA): did not alter
- reduction of cell viability (LDLR-silenced GBM cells; LDLR-silenced GBM cells, PD 10 μM or 20 μM, WST1): less effective
- LC3-II, p62 and cathepsin B response to PD (LDLR-silenced GBM cells; knockdown of LDLR, PD 5 μM or 10 μM, 24 hours, immunoblot): prevented the upregulation of LC3-II and p62 as well as the inactivation of cathpsin B
